Experimental data: ChEMBL document CHEMBL5385847, “Design, synthesis and biological evaluation of a new class of 7H-pyrrolo[2,3-d]pyrimidine derivatives as Mps1 inhibitors for the treatment of breast cancer” (Eur J Med Chem, 2023)
The source made the active and inactive calls. The rule behind the calls is not given here.

Columns and labels:
HEY = experiment: Antiproliferative activity against human HEY cells assessed as inhibition of cell viability by MTT assay; type: functional, cell-based
[1] = molecular target: Proto-oncogene tyrosine-protein kinase Src (Homo sapiens) (UniProt P12931); experiment: Inhibition of human cSRC at 0.1 uM by KINOMEscan assay relative to control
Proto-oncogene tyrosine-protein kinase Src (Homo sapiens), sequence (P12931 2-536 limits assumed): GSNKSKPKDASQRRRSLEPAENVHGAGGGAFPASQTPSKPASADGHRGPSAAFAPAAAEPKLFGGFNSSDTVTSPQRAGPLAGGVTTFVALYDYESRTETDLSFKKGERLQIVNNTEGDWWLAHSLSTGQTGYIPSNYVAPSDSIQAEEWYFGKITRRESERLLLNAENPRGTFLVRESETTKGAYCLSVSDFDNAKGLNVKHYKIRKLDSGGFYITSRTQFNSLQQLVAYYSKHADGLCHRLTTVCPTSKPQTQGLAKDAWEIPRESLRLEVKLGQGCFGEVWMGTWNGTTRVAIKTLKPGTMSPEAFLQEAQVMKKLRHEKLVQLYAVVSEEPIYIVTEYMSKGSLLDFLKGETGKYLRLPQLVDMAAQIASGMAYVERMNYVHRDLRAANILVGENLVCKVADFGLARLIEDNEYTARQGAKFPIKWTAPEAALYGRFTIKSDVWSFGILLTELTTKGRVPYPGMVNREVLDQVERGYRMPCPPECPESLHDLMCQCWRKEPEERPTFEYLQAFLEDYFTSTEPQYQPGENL

4T1-Luc [2] = experiment: Antitumor activity against mouse 4T1-Luc cells xenografted in BALB/C mouse assessed as reduction in tumor growth at 30 to 60 mg/kg, po qd measured after 10 days by IVIS analysis; type: functional, organism-based; conditions: dose 30-60 mg/kg, time 10.0 day
[3] = molecular target: Cytoplasmic tyrosine-protein kinase BMX (Homo sapiens) (UniProt P51813); experiment: Inhibition of human Bmx at 1 uM by KINOMEscan assay relative to control
Cytoplasmic tyrosine-protein kinase BMX (Homo sapiens), sequence (P51813 whole entry): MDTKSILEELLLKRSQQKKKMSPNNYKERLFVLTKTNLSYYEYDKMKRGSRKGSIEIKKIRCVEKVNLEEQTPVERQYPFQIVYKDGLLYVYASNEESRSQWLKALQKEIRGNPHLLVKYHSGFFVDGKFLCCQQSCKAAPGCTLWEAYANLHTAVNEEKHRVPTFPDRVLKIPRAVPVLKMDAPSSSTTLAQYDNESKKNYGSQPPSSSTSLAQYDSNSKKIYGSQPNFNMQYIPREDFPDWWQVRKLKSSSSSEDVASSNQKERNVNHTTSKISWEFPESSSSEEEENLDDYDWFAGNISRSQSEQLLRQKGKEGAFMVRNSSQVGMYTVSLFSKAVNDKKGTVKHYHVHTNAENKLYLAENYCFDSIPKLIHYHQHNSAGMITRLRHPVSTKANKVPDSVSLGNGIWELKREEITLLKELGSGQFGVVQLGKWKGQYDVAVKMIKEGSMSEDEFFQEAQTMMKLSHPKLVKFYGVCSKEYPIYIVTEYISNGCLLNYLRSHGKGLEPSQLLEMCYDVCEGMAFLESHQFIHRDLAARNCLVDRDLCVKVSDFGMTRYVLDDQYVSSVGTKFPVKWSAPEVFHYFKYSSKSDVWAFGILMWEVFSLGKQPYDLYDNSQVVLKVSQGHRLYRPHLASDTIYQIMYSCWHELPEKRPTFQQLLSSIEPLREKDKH

4T1 [4] = experiment: Induction of cell cycle arrest in 4T1 cells at G2/M phase assessed as decrease in CDK1 level incubated for 24 hrs by Western blot analysis; type: functional, cell-based; conditions: Mus musculus, dose <= 3.0 µM
4T1 [5] = experiment: Induction of DNA damage in 4T1 cells assessed as increase in gamma-H2AX level incubated for 2 hrs by Western blot analysis; type: functional, cell-based; conditions: Mus musculus, dose <= 3.0 µM
4T1-Luc [6] = experiment: Antitumor activity against mouse 4T1-Luc cells xenografted in BALB/C mouse assessed as delay in tumor growth at 30 to 60 mg/kg, po qd treated for 15 days; type: functional, organism-based; conditions: dose 30-60 mg/kg, time 15.0 day
[7] = molecular target: Tyrosine-protein kinase Yes (Homo sapiens) (UniProt P07947); experiment: Inhibition of human Yes at 1 uM by KINOMEscan assay relative to control
Tyrosine-protein kinase Yes (Homo sapiens), sequence (P07947 2-543 limits assumed): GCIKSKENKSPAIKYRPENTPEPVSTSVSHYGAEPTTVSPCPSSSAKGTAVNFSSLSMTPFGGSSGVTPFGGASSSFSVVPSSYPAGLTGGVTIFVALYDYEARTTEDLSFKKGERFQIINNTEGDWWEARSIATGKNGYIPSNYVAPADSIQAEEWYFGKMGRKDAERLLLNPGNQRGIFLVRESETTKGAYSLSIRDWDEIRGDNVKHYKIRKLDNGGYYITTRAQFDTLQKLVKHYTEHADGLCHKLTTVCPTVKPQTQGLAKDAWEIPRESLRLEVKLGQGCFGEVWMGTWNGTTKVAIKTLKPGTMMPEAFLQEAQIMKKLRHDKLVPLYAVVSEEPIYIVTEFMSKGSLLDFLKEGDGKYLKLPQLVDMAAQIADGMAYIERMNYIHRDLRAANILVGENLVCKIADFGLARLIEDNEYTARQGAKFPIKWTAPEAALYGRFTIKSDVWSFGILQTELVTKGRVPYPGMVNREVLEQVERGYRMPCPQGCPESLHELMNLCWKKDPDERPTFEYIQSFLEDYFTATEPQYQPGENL

[8] = Toxicity in BALB/C mouse xenografted with mouse 4T1-Luc cells assessed as histological change in lung at 30 to 60 mg/kg, po qd treated for 15 days by H and E staining based analysis; type: organism-based; conditions: in vivo, 360 h, dose 30-60 mg/kg, time 15 day
4T1 [9] = experiment: Antiproliferative activity against 4T1 cells assessed as inhibition of cell viability incubated for 24 to 72 hrs by MTT assay; type: functional, cell-based; conditions: Mus musculus, dose <= 10.0 µM, time 24-72 hrs
[10] = molecular target: Hepatocyte growth factor receptor (Homo sapiens) (UniProt P08581); experiment: Inhibition of human Met at 1 uM by KINOMEscan assay relative to control
Hepatocyte growth factor receptor (Homo sapiens), sequence (P08581 whole entry): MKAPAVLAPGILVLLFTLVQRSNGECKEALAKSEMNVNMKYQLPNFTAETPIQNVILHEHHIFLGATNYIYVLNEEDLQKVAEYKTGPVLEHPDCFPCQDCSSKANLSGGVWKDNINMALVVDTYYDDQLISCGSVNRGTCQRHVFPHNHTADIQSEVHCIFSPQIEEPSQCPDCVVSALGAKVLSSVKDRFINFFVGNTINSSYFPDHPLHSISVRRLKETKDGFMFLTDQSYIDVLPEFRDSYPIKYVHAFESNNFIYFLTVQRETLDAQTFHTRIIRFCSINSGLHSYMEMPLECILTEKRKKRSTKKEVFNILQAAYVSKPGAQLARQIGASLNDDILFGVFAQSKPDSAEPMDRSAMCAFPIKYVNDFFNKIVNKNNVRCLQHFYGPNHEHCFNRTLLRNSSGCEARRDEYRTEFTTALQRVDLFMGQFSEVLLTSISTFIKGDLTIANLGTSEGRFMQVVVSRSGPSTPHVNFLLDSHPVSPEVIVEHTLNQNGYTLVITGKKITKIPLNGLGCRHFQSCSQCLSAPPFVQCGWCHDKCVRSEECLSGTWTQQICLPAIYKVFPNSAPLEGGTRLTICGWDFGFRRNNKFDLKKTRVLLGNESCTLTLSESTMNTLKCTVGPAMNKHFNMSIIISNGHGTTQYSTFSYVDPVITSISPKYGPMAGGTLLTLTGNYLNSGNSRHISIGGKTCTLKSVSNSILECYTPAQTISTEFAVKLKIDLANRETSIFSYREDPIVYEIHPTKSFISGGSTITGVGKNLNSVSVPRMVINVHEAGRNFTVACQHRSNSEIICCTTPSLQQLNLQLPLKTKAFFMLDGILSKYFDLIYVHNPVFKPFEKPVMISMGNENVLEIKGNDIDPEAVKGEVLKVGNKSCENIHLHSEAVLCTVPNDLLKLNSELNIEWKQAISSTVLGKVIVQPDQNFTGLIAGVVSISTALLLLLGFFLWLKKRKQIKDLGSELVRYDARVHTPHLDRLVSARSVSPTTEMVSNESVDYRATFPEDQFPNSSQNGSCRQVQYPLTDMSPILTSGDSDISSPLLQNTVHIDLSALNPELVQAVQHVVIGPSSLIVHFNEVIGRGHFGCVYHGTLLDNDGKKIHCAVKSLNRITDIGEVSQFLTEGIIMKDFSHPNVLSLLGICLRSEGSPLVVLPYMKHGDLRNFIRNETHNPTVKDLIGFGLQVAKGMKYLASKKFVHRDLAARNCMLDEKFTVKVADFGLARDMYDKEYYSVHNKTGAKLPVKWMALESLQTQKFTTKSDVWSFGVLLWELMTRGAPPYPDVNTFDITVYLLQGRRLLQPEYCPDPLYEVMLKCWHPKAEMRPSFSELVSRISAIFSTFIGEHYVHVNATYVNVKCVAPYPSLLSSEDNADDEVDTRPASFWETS

MCF7 [11] = experiment: Induction of apoptosis in human MCF7 cells assessed as early apoptotic cells at 1 uM incubated for 48 hrs by Annexin V-FITC/PI staining based flow cytometry (reference value: 1.19 %); type: functional
MCF7 [12] = experiment: Induction of apoptosis in human MCF7 cells assessed as late apoptotic cells at 1 uM incubated for 48 hrs by Annexin V-FITC/PI staining based flow cytometry (reference value: 0.63 %); type: functional
4T1 [13] = experiment: Induction of apoptosis in 4T1 cells assessed as necrotic cells at 1 uM incubated for 48 hrs by Annexin V-FITC/PI staining based flow cytometry (reference value: 0.20 %); type: functional, Mus musculus
MCF7 [14] = experiment: Induction of apoptosis in human MCF7 cells assessed as early apoptotic cells at 0.5 uM incubated for 48 hrs by Annexin V-FITC/PI staining based flow cytometry (reference value: 1.19 %); type: functional
MCF7 [15] = experiment: Induction of cell cycle arrest in human MCF7 cells at G2/M phase assessed as decrease in CDK1 level incubated for 24 hrs by Western blot analysis; type: functional, cell-based; conditions: dose <= 3.0 µM
[16] = molecular target: Cytoplasmic tyrosine-protein kinase BMX (Homo sapiens) (UniProt P51813); experiment: Inhibition of human Bmx at 0.1 uM by KINOMEscan assay relative to control
[17] = Toxicity in BALB/C mouse xenografted with mouse 4T1-Luc cells assessed as histological change in spleen at 30 to 60 mg/kg, po qd treated for 15 days by H and E staining based analysis; type: organism-based; conditions: in vivo, 360 h, dose 30-60 mg/kg, time 15 day
AGS = experiment: Antiproliferative activity against human AGS cells assessed as inhibition of cell viability by MTT assay; type: functional, cell-based
[18] = molecular target: T1, Dual specificity protein kinase TTK (Homo sapiens) (UniProt P33981); experiment: Inhibition of Mps1 phosphorylation in mouse 4T1-Luc cells xenografted in BALB/C mouse at 30 to 60 mg/kg, po qd treated for 15 days by IHC analysis; type: organism-based; conditions: dose 30-60 mg/kg, time 15.0 day
T1 sequence (whole entry): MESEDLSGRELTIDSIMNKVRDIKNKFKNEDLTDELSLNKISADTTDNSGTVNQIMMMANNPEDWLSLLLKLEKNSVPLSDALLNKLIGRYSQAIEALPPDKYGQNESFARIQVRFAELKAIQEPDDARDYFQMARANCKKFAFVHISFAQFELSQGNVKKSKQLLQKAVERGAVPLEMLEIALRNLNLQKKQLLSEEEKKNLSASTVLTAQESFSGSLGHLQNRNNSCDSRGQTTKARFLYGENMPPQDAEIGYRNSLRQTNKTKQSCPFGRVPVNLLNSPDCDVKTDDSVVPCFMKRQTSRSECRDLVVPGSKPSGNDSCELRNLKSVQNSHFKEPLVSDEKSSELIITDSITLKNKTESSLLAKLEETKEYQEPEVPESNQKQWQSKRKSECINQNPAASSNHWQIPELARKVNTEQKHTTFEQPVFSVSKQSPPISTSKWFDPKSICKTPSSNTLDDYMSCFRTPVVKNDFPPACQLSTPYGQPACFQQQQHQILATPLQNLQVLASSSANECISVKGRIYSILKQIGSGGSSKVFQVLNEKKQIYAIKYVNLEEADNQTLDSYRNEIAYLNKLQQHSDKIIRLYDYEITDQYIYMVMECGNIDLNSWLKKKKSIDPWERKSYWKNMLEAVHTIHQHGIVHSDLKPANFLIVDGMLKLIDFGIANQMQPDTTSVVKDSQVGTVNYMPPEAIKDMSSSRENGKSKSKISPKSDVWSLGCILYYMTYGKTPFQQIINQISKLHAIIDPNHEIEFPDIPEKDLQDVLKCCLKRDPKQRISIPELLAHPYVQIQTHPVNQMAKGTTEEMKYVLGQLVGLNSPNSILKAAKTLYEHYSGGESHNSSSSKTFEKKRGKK

MCF7 [19] = experiment: Induction of apoptosis in human MCF7 cells assessed as late apoptotic cells at 5 uM incubated for 48 hrs by Annexin V-FITC/PI staining based flow cytometry (reference value: 0.63 %); type: functional
MCF7 [20] = experiment: Induction of apoptosis in human MCF7 cells assessed as necrotic cells at 5 uM incubated for 48 hrs by Annexin V-FITC/PI staining based flow cytometry (reference value: 0.03 %); type: functional
[21] = Toxicity in BALB/C mouse xenografted with mouse 4T1-Luc cells assessed as histological change in kidneys at 30 to 60 mg/kg, po qd treated for 15 days by H and E staining based analysis; type: organism-based; conditions: in vivo, 360 h, dose 30-60 mg/kg, time 15 day
MCF7 [22] = experiment: Induction of apoptosis in human MCF7 cells assessed as early apoptotic cells at 5 uM incubated for 48 hrs by Annexin V-FITC/PI staining based flow cytometry (reference value: 1.19 %); type: functional
MCF7 [23] = experiment: Induction of apoptosis in human MCF7 cells assessed as increase in cleaved PARP level upto 3 uM incubated for 48 hrs by Western blot analysis; type: functional, cell-based
4T1 [24] = experiment: Induction of apoptosis in 4T1 cells assessed as late apoptotic cells at 0.5 uM incubated for 48 hrs by Annexin V-FITC/PI staining based flow cytometry (reference value: 1.73 %); type: functional, Mus musculus

CN1CCN(c2ccc(Nc3nc(-n4nc(N)c5ccccc54)c4cc[nH]c4n3)cc2)CC1
IC50 (HEY): > 3000 nM
inhibition [1]: 52%
Activity (4T1-Luc [2]): Active
inhibition [3]: 95%
Activity (4T1 [4]): Dose-Dependent Effect
Activity (4T1 [5]): Dose-Dependent Effect
Activity (4T1-Luc [6]): Active
inhibition [7]: 100%
Activity [8]: Non-Toxic
inhibition (4T1 [9]): Dose-Dependent Effect
inhibition [10]: 100%
Activity (MCF7 [11]): 6.54%
Activity (MCF7 [12]): 14.31%
Activity (4T1 [13]): 0.6%
Activity (MCF7 [14]): 6.55%
Activity (MCF7 [15]): Dose-Dependent Effect
inhibition [16]: 55%
Activity [17]: Non-Toxic
IC50 (AGS): > 3000 nM
inhibition [18]: Active
Activity (MCF7 [19]): 17.53%
Activity (MCF7 [20]): 0.38%
Activity [21]: Non-Toxic
Activity (MCF7 [22]): 2.3%
Activity (MCF7 [23]): Active
Activity (4T1 [24]): 5.41%
